Data taken from US8613927B2, “High affinity human antibodies to human nerve growth factor” (Regeneron Pharmaceuticals, Inc., priority 2007, dated 2013).

Key:
[1] = target: T1, human NT-3 binding to human TrkA-hFc (Homo sapiens, UniProt P20783); assay: BIACORE, NT-3 binding to TrkA-hFc surface in presence of antibody; settings: 20 nM NT-3 + 500 nM sample; normalized to IgG1 control
T1 sequence (P20783 139-257): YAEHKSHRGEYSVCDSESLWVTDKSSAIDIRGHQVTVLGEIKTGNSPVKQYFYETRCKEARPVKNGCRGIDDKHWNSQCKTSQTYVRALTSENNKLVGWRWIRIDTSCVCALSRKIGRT
Description: (§1) Human TrkA-hFc (9300 RU), human TrkB-hFc (6000 RU), human TrkC-hFc (9100 RU) and human p75-hFc (7500 RU) were covalently coupled to BIACORE® CM5 chip surfaces by amine-coupling procedure. […] The binding mixture was first incubated at room temperature to reach equilibrium (about 1 hr) and then was injected over the above TrkA-hFc, TrkB-hFc, TrkC-hFc and p75-hFc surfaces. The level of human NT-3 binding in each sample was measured. The binding RU from each sample mixture was normalized according to the RU value from the negative control sample (i.e., 20 nM human NT-3 with 500 nM AVASTIN®) and presented as % binding to Trk surfaces (Table 9).

[2] = test system: C57BL/6 mice; assay: Post-operative incision pain model, mechanical allodynia in von Frey test; type: in vivo, mouse; settings: Table 17
Description: Thermal hyperalgesia was studied in the Hargreaves' test and mechanical allodynia was tested in the von Frey test. In this latter test, mice were tested after being acclimated for 2-3 hours for 4 days in an apparatus with a wire mesh floor. The test was performed by applying, in ascending order, a series of von Frey hairs through the wire mesh onto the plantar surface of the hind paw with the incision. A response was considered positive if the paw was raised from the platform in response to application of the filament. Starting from the thinnest hair, each von Frey filament was applied up to five times until a response was observed.

[3] = target: T2, human NT-3 binding to human p75-hFc (Homo sapiens, UniProt P20783); assay: BIACORE, NT-3 binding to p75-hFc surface in presence of antibody; settings: 20 nM NT-3 + 500 nM sample; normalized to IgG1 control
T2 sequence (P20783 139-257): T1 sequence (P20783 139-257)
Description: as §1

[4] = test system: C57BL/6 male mice; assay: Seltzer model of neuropathic pain, Hargreaves' test; type: in vivo, mouse
Source text: Neuropathic pain. The mouse Seltzer model of neuropathic pain (Malmberg et al. (1998) Pain 76:215-222) was used with C57BL/6 male mice, in which a partial nerve injury was produced by tying a tight ligature with a 7-0 silk suture around approximately ⅓ to ½ the diameter of the sciatic nerve of one single thigh per mouse. Post-surgery, the mice were allowed to recover for at least two days and then they were studied for several weeks post-surgery for thermal hyperalgesia in the Hargreaves' test. Controls were sham-operated mice in which the sciatic nerve was exposed and elevated but not tied. Following surgery, the mice were tested at day […] and at day 7 post-surgery to confirm that the thermal hyperalgesia had developed.
Following the Seltzer surgery, mice were tested at days 5 and 7 post-surgery to confirm that the thermal hyperalgesia had developed.

[5] = target: T3, human NT-3 binding to human TrkB-hFc (Homo sapiens, UniProt P20783); assay: BIACORE, NT-3 binding to TrkB-hFc surface in presence of antibody; settings: 20 nM NT-3 + 500 nM sample; normalized to IgG1 control
T3 sequence (P20783 139-257): T1 sequence (P20783 139-257)
Description: as §1

[6] = target: T4, Human NGF (MG87 cells stably transfected with human TrkA receptor) (Homo sapiens, UniProt P01138, DEL136-138/DEL208-209); assay: NGF-dependent, TrkA receptor-mediated cell growth of MG87 cells (CCK8); type: cell-based; settings: 373 pM human NGF; 3 days
T4 construct: host or cells: NGF added exogenously; partner TrkA made by stably transfected MG87 cells
T4 sequence (P01138 with tags, fused parts or gaps DEL136-138/DEL208-209): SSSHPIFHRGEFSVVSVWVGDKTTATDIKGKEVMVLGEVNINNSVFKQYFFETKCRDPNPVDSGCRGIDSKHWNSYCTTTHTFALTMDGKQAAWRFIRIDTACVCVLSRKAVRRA
Description: The ability of NGF antibodies to block NGF-dependent and TrkA receptor-mediated cell growth activity was carried out using MG87 cells stably transfected with a plasmid encoding human TrkA receptor. Briefly, the transfected cells were trypsinized and resuspended at approximately 2.5×10^5 cells per ml and plated at 5,000 cells per well in a 96-well tissue culture plate. The purified antibody proteins were serially diluted in defined medium plus 0.1% BSA and added to the plated cells at concentrations ranging from 0 to 500 nM. Human NGF was added to the wells to a final concentration of 373 pM. The response was measured after incubating the cells for 3 days at 37° C. in a humidified 5% CO2 incubator. Cell growth activity was measured with a CCK8 kit (Dojindo) and OD450nm recorded. The dependency of the signals on the concentrations of antibody was analyzed and IC50 values reported (Table 10, column 2).

[7] = target: T5, human NT-3 binding to human TrkC-hFc (Homo sapiens, UniProt P20783); assay: BIACORE, NT-3 binding to TrkC-hFc surface in presence of antibody; settings: 20 nM NT-3 + 500 nM sample; normalized to IgG1 control
T5 sequence (P20783 139-257): T1 sequence (P20783 139-257)
Description: as §1

## tanezumab [RN624]
[1]
  % binding to TrkA-hFc surface: 7%
[2]; 25 mg/kg i.p. on day 1 post-surgery, Baseline
  Paw Withdrawal Threshold: 1.314 ± 0.137 g
[2]; 25 mg/kg i.p., 5 hr after treatment
  Paw Withdrawal Threshold: 0.083 ± 0.053 g
[2]; 25 mg/kg i.p., 22 hr after treatment
  Paw Withdrawal Threshold: 0.610 ± 0.123 g
[2]; 25 mg/kg i.p., 45 hr after treatment
  Paw Withdrawal Threshold: 0.909 ± 0.216 g
[2]; 25 mg/kg i.p., 70 hr after treatment
  Paw Withdrawal Threshold: 1.143 ± 0.189 g
[2]; 25 mg/kg i.p., Day 1 (post-surgery, before injection)
  Paw Withdrawal Threshold: 0.010 ± 0.002 g
[3]
  % binding to p75-hFc surface: 19%
[4]; 50 mg/kg s.c. or i.p. at day 7 post-surgery, p<0.001-0.05
  pain relief: Significant pain relief was observed
[4]; Table 25, 50 mg/kg s.c. at day 7, day 5 after surgery
  mean percent change from Hargreaves baseline: −53.5 ± 6.3%
[4]; Table 25, 50 mg/kg s.c. at day 7, day 7
  mean percent change from Hargreaves baseline: −48.4 ± 6.2%
[4]; Table 25, 50 mg/kg s.c. at day 7, day 8
  mean percent change from Hargreaves baseline: 4.5 ± 9.0%
[4]; Table 25, 50 mg/kg s.c. at day 7, day 9
  mean percent change from Hargreaves baseline: −15.2 ± 8.5%
[4]; Table 25, 50 mg/kg s.c. at day 7, day 12
  mean percent change from Hargreaves baseline: −4.2 ± 12.0%
[4]; Table 25, 50 mg/kg s.c. at day 7, day 15
  mean percent change from Hargreaves baseline: 2.1 ± 10.9%
[4]; Table 25, 50 mg/kg s.c. at day 7, day 19
  mean percent change from Hargreaves baseline: −11.5 ± 12.1%
[4]; Table 25, 50 mg/kg s.c. at day 7, day 22
  mean percent change from Hargreaves baseline: −5.7 ± 9.5%
[4]; Table 25, 50 mg/kg s.c. at day 7 post-surgery, Baseline
  mean percent change from Hargreaves baseline: 0.0 ± 0.0%
[4]; Table 26, 50 mg/kg i.p. at day 7, day 5 after surgery
  mean percent change from Hargreaves baseline: −56.6 ± 2.3%
[4]; Table 26, 50 mg/kg i.p. at day 7, day 7
  mean percent change from Hargreaves baseline: −62.3 ± 3.4%
[4]; Table 26, 50 mg/kg i.p. at day 7, day 8
  mean percent change from Hargreaves baseline: −3.3 ± 16.0%
[4]; Table 26, 50 mg/kg i.p. at day 7, day 9
  mean percent change from Hargreaves baseline: −18.4 ± 12.9%
[4]; Table 26, 50 mg/kg i.p. at day 7, day 12
  mean percent change from Hargreaves baseline: −7.0 ± 11.8%
[4]; Table 26, 50 mg/kg i.p. at day 7, day 15
  mean percent change from Hargreaves baseline: −16.2 ± 14.8%
[4]; Table 26, 50 mg/kg i.p. at day 7 post-surgery, Baseline
  mean percent change from Hargreaves baseline: 0.0 ± 0.0%
[5]
  % binding to TrkB-hFc surface: 8%
[6]
  IC50: < 0.186 nM
[7]
  % binding to TrkC-hFc surface: 8%
